According to patent US10807992B2, “Single enantiomer antiparasitic compounds” (priority 2017, dated 2020):

Key:
Ixodes scapularis = assay: In vitro contact activity against adult ticks (coated vial), I. scapularis; conditions: for mortality at 0.006 µM: Trial 1, dose 0.006 μM; for mortality at 0.024 µM: Trial 1, dose 0.024 μM; for mortality at 0.098 µM: Trial 1, dose 0.098 μM; for mortality at 0.39 µM: Trial 1, dose 0.39 μM; for mortality at 1.56 µM: Trial 1, dose 1.56 μM; for mortality at 6.25 µM: Trial 1, dose 6.25 μM; for mortality at 25 µM: Trial 1, dose 25 μM; for mortality at 100 µM: Trial 1, dose 100 μM
Description: (§1) Rhipicephalus sanguineus, Dermacentor variabilis, Amblyomma americanum, (Ecto Services, Inc., Henderson, N.C.) and Ixodes scapularis (Oklahoma State University, Stillwater, Okla.) aged between 2-4 weeks post molt were held in an environmental chamber at 24° C., 80% humidity with 12-hour light/dark cycles.
(§2) For tick assays, vial caps were pre-drilled with a single hole in the center of each cap to allow air exchange. A filter paper (Whatman Grade 540 2.1 cm) was placed in the lid of each vial. An aliquot from each compound stock was added to an acetone/triton solution to achieve the desired top doses for the study. Serial dilutions were conducted from the top dose (i.e. 100 ppm) to achieve the desired titration range for EC50 and EC90 determination. For R. sanguineus, D. variabilis, and A. americanum, the final DMSO concentration in each test vial was 0.5%. For I. scapularis, compounds were solubilized directly in an acetone/triton solution due to I. scapularis' sensitivity to DMSO. A 459 μL aliquot of each compound formulation was transferred to a vial containing a Whatman Grade 540 2.1 cm filter paper. Vials were immediately placed on an unheated roller unit to allow for an even coating of the vial walls. After vials were coated, 41 μL of each compound formulation was added to the filter paper embedded in each vial cap. Each cap was allowed to dry. The vials were loosely capped and allowed to dry for a minimum of four hours in a chemical fume hood.
(§3) Compounds tested were: the C1 racemate, C1 (R) enantiomer, and the C1 (S) enantiomer. For Trial 3, the C1 (R) enantiomer and the C1 (S) enantiomer were further chiral purified to achieve >99% purity.
(§4) Ten adult ticks were added to each vial and held at 24° C., 80% humidity with 12-hour light/dark cycles. Adult ticks were assessed for percent mortality at various time points between 2 hours and 48 hours post infestation. Ticks were stimulated on a heated roller unit and evaluated. Ticks showing no movement, or very slow and uncoordinated movement were noted as dead.

Rhipicephalus sanguineus = assay: In vitro contact activity against adult ticks (coated vial), R. sanguineus; conditions: for mortality at 0.006 µM: Trial 3, dose 0.006 μM; for mortality at 0.024 µM: Trial 3, dose 0.024 μM; for mortality at 0.098 µM: Trial 3, dose 0.098 μM; for mortality at 0.39 µM: Trial 3, dose 0.39 μM; for mortality at 1.56 µM: Trial 3, dose 1.56 μM; for mortality at 6.25 µM: Trial 3, dose 6.25 μM; for mortality at 25 µM: Trial 3, dose 25 μM; for mortality at 100 µM: Trial 3, dose 100 μM
Description: as §1, §2, §3, §4

O=C(CC(F)(F)F)N1CC2(C1)OCc1cc(C3=NSC(c4cc(Cl)c(F)c(Cl)c4)(C(F)(F)F)C3)ccc12 (racemic) [C1 racemate, 1-[6-[5-(3,5-dichloro-4-fluoro-phenyl)-5-(trifluoromethyl)-4H-isothiazol-3-yl]spiro[1H-isobenzofuran-3,3′-azetidine]-1′-yl]-3,3,3-trifluoro-propan-1-one]
mortality at 0.006 µM (Ixodes scapularis; 2 h, Rep1): 0% | mortality at 0.006 µM (Ixodes scapularis; 2 h, Rep2): 0% | mortality at 0.024 µM (Ixodes scapularis; 2 h, Rep1): 0% | mortality at 0.024 µM (Ixodes scapularis; 2 h, Rep2): 0% | mortality at 0.098 µM (Ixodes scapularis; 2 h, Rep1): 0% | mortality at 0.098 µM (Ixodes scapularis; 2 h, Rep2): 0% | mortality at 0.39 µM (Ixodes scapularis; 2 h, Rep1): 0% | mortality at 0.39 µM (Ixodes scapularis; 2 h, Rep2): 0% | mortality at 1.56 µM (Ixodes scapularis; 2 h, Rep1): 0% | mortality at 1.56 µM (Ixodes scapularis; 2 h, Rep2): 0% | mortality at 6.25 µM (Ixodes scapularis; 2 h, Rep1): 0% | mortality at 6.25 µM (Ixodes scapularis; 2 h, Rep2): 0% | mortality at 25 µM (Ixodes scapularis; 2 h, Rep1): 0% | mortality at 25 µM (Ixodes scapularis; 2 h, Rep2): 0% | mortality at 100 µM (Ixodes scapularis; 2 h, Rep1): 0% | mortality at 100 µM (Ixodes scapularis; 2 h, Rep2): 0% | mortality at 0.006 µM (Ixodes scapularis; 6 h, Rep1): 0% | mortality at 0.006 µM (Ixodes scapularis; 6 h, Rep2): 0% | mortality at 0.024 µM (Ixodes scapularis; 6 h, Rep1): 0% | mortality at 0.024 µM (Ixodes scapularis; 6 h, Rep2): 0% | mortality at 0.098 µM (Ixodes scapularis; 6 h, Rep1): 0% | mortality at 0.098 µM (Ixodes scapularis; 6 h, Rep2): 0% | mortality at 0.39 µM (Ixodes scapularis; 6 h, Rep1): 0% | mortality at 0.39 µM (Ixodes scapularis; 6 h, Rep2): 0% | mortality at 1.56 µM (Ixodes scapularis; 6 h, Rep1): 0% | mortality at 1.56 µM (Ixodes scapularis; 6 h, Rep2): 0% | mortality at 6.25 µM (Ixodes scapularis; 6 h, Rep1): 0% | mortality at 6.25 µM (Ixodes scapularis; 6 h, Rep2): 0% | mortality at 25 µM (Ixodes scapularis; 6 h, Rep1): 10% | mortality at 25 µM (Ixodes scapularis; 6 h, Rep2): 40% | mortality at 100 µM (Ixodes scapularis; 6 h, Rep1): 100% | mortality at 100 µM (Ixodes scapularis; 6 h, Rep2): 50% | mortality at 0.006 µM (Ixodes scapularis; 12 h, Rep1): 0% | mortality at 0.006 µM (Ixodes scapularis; 12 h, Rep2): 0% | mortality at 0.024 µM (Ixodes scapularis; 12 h, Rep1): 0% | mortality at 0.024 µM (Ixodes scapularis; 12 h, Rep2): 0% | mortality at 0.098 µM (Ixodes scapularis; 12 h, Rep1): 0% | mortality at 0.098 µM (Ixodes scapularis; 12 h, Rep2): 0% | mortality at 0.39 µM (Ixodes scapularis; 12 h, Rep1): 0% | mortality at 0.39 µM (Ixodes scapularis; 12 h, Rep2): 10% | mortality at 1.56 µM (Ixodes scapularis; 12 h, Rep1): 0% | mortality at 1.56 µM (Ixodes scapularis; 12 h, Rep2): 0% | mortality at 6.25 µM (Ixodes scapularis; 12 h, Rep1): 0% | mortality at 6.25 µM (Ixodes scapularis; 12 h, Rep2): 70% | mortality at 25 µM (Ixodes scapularis; 12 h, Rep1): 50% | mortality at 25 µM (Ixodes scapularis; 12 h, Rep2): 70% | mortality at 100 µM (Ixodes scapularis; 12 h, Rep1): 100% | mortality at 100 µM (Ixodes scapularis; 12 h, Rep2): 100% | mortality at 0.006 µM (Ixodes scapularis; 24 h, Rep1): 0% | mortality at 0.006 µM (Ixodes scapularis; 24 h, Rep2): 0% | mortality at 0.024 µM (Ixodes scapularis; 24 h, Rep1): 0% | mortality at 0.024 µM (Ixodes scapularis; 24 h, Rep2): 30% | mortality at 0.098 µM (Ixodes scapularis; 24 h, Rep1): 0% | mortality at 0.098 µM (Ixodes scapularis; 24 h, Rep2): 20% | mortality at 0.39 µM (Ixodes scapularis; 24 h, Rep1): 50% | mortality at 0.39 µM (Ixodes scapularis; 24 h, Rep2): 50% | mortality at 1.56 µM (Ixodes scapularis; 24 h, Rep1): 10% | mortality at 1.56 µM (Ixodes scapularis; 24 h, Rep2): 30% | mortality at 6.25 µM (Ixodes scapularis; 24 h, Rep1): 80% | mortality at 6.25 µM (Ixodes scapularis; 24 h, Rep2): 100% | mortality at 25 µM (Ixodes scapularis; 24 h, Rep1): 90% | mortality at 25 µM (Ixodes scapularis; 24 h, Rep2): 100% | mortality at 100 µM (Ixodes scapularis; 24 h, Rep1): 100% | mortality at 100 µM (Ixodes scapularis; 24 h, Rep2): 100% | mortality at 0.006 µM (Ixodes scapularis; 48 h, Rep1): 10% | mortality at 0.006 µM (Ixodes scapularis; 48 h, Rep2): 0% | mortality at 0.024 µM (Ixodes scapularis; 48 h, Rep1): 10% | mortality at 0.024 µM (Ixodes scapularis; 48 h, Rep2): 30% | mortality at 0.098 µM (Ixodes scapularis; 48 h, Rep1): 0% | mortality at 0.098 µM (Ixodes scapularis; 48 h, Rep2): 60% | mortality at 0.39 µM (Ixodes scapularis; 48 h, Rep1): 70% | mortality at 0.39 µM (Ixodes scapularis; 48 h, Rep2): 100% | mortality at 1.56 µM (Ixodes scapularis; 48 h, Rep1): 90% | mortality at 1.56 µM (Ixodes scapularis; 48 h, Rep2): 80% | mortality at 6.25 µM (Ixodes scapularis; 48 h, Rep1): 100% | mortality at 6.25 µM (Ixodes scapularis; 48 h, Rep2): 100% | mortality at 25 µM (Ixodes scapularis; 48 h, Rep1): 100% | mortality at 25 µM (Ixodes scapularis; 48 h, Rep2): 100% | mortality at 100 µM (Ixodes scapularis; 48 h, Rep1): 100% | mortality at 100 µM (Ixodes scapularis; 48 h, Rep2): 100% | mortality at 0.006 µM (Rhipicephalus sanguineus; 2 h, Rep1): 0% | mortality at 0.006 µM (Rhipicephalus sanguineus; 2 h, Rep2): 0% | mortality at 0.024 µM (Rhipicephalus sanguineus; 2 h, Rep1): 0% | mortality at 0.024 µM (Rhipicephalus sanguineus; 2 h, Rep2): 0% | mortality at 0.098 µM (Rhipicephalus sanguineus; 2 h, Rep1): 0% | mortality at 0.098 µM (Rhipicephalus sanguineus; 2 h, Rep2): 0% | mortality at 0.39 µM (Rhipicephalus sanguineus; 2 h, Rep1): 0% | mortality at 0.39 µM (Rhipicephalus sanguineus; 2 h, Rep2): 0% | mortality at 1.56 µM (Rhipicephalus sanguineus; 2 h, Rep1): 0% | mortality at 1.56 µM (Rhipicephalus sanguineus; 2 h, Rep2): 0% | mortality at 6.25 µM (Rhipicephalus sanguineus; 2 h, Rep1): 0% | mortality at 6.25 µM (Rhipicephalus sanguineus; 2 h, Rep2): 0% | mortality at 25 µM (Rhipicephalus sanguineus; 2 h, Rep1): 30% | mortality at 25 µM (Rhipicephalus sanguineus; 2 h, Rep2): 10% | mortality at 100 µM (Rhipicephalus sanguineus; 2 h, Rep1): 10% | mortality at 100 µM (Rhipicephalus sanguineus; 2 h, Rep2): 0% | mortality at 0.006 µM (Rhipicephalus sanguineus; 6 h, Rep1): 0% | mortality at 0.006 µM (Rhipicephalus sanguineus; 6 h, Rep2): 0% | mortality at 0.024 µM (Rhipicephalus sanguineus; 6 h, Rep1): 0% | mortality at 0.024 µM (Rhipicephalus sanguineus; 6 h, Rep2): 0% | mortality at 0.098 µM (Rhipicephalus sanguineus; 6 h, Rep1): 0% | mortality at 0.098 µM (Rhipicephalus sanguineus; 6 h, Rep2): 0% | mortality at 0.39 µM (Rhipicephalus sanguineus; 6 h, Rep1): 10% | mortality at 0.39 µM (Rhipicephalus sanguineus; 6 h, Rep2): 0% | mortality at 1.56 µM (Rhipicephalus sanguineus; 6 h, Rep1): 0% | mortality at 1.56 µM (Rhipicephalus sanguineus; 6 h, Rep2): 0% | mortality at 6.25 µM (Rhipicephalus sanguineus; 6 h, Rep1): 50% | mortality at 6.25 µM (Rhipicephalus sanguineus; 6 h, Rep2): 20% | mortality at 25 µM (Rhipicephalus sanguineus; 6 h, Rep1): 90% | mortality at 25 µM (Rhipicephalus sanguineus; 6 h, Rep2): 100% | mortality at 100 µM (Rhipicephalus sanguineus; 6 h, Rep1): 100% | mortality at 100 µM (Rhipicephalus sanguineus; 6 h, Rep2): 100% | mortality at 0.006 µM (Rhipicephalus sanguineus; 12 h, Rep1): 0% | mortality at 0.006 µM (Rhipicephalus sanguineus; 12 h, Rep2): 0% | mortality at 0.024 µM (Rhipicephalus sanguineus; 12 h, Rep1): 0% | mortality at 0.024 µM (Rhipicephalus sanguineus; 12 h, Rep2): 0% | mortality at 0.098 µM (Rhipicephalus sanguineus; 12 h, Rep1): 0% | mortality at 0.098 µM (Rhipicephalus sanguineus; 12 h, Rep2): 0% | mortality at 0.39 µM (Rhipicephalus sanguineus; 12 h, Rep1): 10% | mortality at 0.39 µM (Rhipicephalus sanguineus; 12 h, Rep2): 0% | mortality at 1.56 µM (Rhipicephalus sanguineus; 12 h, Rep1): 90% | mortality at 1.56 µM (Rhipicephalus sanguineus; 12 h, Rep2): 50% | mortality at 6.25 µM (Rhipicephalus sanguineus; 12 h, Rep1): 80% | mortality at 6.25 µM (Rhipicephalus sanguineus; 12 h, Rep2): 80% | mortality at 25 µM (Rhipicephalus sanguineus; 12 h, Rep1): 90% | mortality at 25 µM (Rhipicephalus sanguineus; 12 h, Rep2): 100% | mortality at 100 µM (Rhipicephalus sanguineus; 12 h, Rep1): 100% | mortality at 100 µM (Rhipicephalus sanguineus; 12 h, Rep2): 100%
